The results in this text go back to US8420630B2 (Boehringer Ingelheim Pharma GmbH & Co. KG, priority 2001, dated 2013).

pIC50: −log10 of the molar value. Where only a bound is given, the exact number is not on record here.

The target of this experiment is T1, CDK1/cyclinB1 (Homo sapiens, UniProt P06493).
T1 construct: made in house; host or cells: High Five insect cells (Trichoplusia ni), baculovirus coinfection
T1 sequence (P06493 whole entry): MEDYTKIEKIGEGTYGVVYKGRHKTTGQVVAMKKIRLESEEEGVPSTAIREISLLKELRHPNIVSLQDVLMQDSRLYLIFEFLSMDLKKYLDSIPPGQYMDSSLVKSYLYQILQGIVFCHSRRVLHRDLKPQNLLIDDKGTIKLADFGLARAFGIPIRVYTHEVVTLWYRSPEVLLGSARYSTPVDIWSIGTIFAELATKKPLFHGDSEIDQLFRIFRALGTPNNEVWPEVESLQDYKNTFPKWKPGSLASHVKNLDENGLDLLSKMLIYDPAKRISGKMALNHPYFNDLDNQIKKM
T1 sequence (P14635 whole entry partner): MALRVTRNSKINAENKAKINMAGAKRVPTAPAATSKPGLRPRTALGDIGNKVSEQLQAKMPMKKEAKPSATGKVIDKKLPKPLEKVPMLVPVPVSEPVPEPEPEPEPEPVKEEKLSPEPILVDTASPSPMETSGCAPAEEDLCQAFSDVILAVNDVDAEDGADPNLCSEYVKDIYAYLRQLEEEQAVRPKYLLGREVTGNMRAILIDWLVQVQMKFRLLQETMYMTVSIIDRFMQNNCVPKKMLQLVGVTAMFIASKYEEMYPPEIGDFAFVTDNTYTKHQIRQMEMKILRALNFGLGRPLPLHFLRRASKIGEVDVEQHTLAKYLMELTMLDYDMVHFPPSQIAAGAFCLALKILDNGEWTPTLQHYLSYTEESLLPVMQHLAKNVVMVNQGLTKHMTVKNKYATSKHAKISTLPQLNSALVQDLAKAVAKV
Briefly: Cyclin B1-CDK1 kinase inhibition test. It is filed as biochemical. The settings on record: CDK1 tests (Example 13); recombinant cyclin B1/CDK1, substrate histone H1; read-out: CDK1/cyclinB1 IC50 value. In a few lines: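 Baculovirus-expressed CDK1/cyclin B1 phosphorylated histone H1 with ATP mix containing 0.045 mM ATP plus ^33P-ATP for 30 min at 30 °C. Protein was precipitated with TCA and filter-bound radioactivity read by scintillation counting. Olomoucin at 30 and 300 μM final served as internal control.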
For the compound `CC(=O)NCCNc1nc(Nc2cccc(Br)c2)ncc1C(F)(F)F` [Example 2(012), 2-(3-bromo-phenylamino)-4-(2-acetylamino-ethylamino)-5-trifluoromethyl-pyrimidine], the pIC50 is over 7.00.

In the case of `CC(=O)NCCNc1nc(Nc2ccc(S(=O)(=O)C(C)C)cc2)ncc1C(F)(F)F` [Example 1(692), N-(2-{2-[4-(propane-2-sulphonyl)-phenylamino]-5-trifluoromethyl-pyrimidin-4-ylamino}-ethyl)-acetamide], the pIC50 was over 7.00. The value for `CC(=O)NCCNc1nc(Nc2cccc(NS(=O)(=O)c3ccccc3)c2)ncc1C(F)(F)F` [Example 10(015), N-(2-[2-(3-phenylsulphonylamido-phenylamino)-5-trifluoromethyl-pyrimidin-4-ylamino]-ethyl)-acetamide] was over 7.00; that for `NCCCCNc1nc(Nc2ccc(Cl)c(Cl)c2)ncc1C(F)(F)F` [Example 1(304), 2-(3,4-dichlorophenylamino)-4-(4-aminobutylamino)-5-trifluoromethyl-pyrimidine] was over 7.00. The value for `O=C(Nc1ccccc1)c1ccc(Nc2ncc([N+](=O)[O-])c(N3CCc4[nH]cnc4C3)n2)cc1` [Example 1(026), 2-(4-phenylaminocarbonyl-phenylamino)-4-(1,4,6,7-tetrahydro-imidazo[4,5-c]pyridin-5-yl)-5-nitro-pyrimidine] was over 7.00; that for `FC(F)(F)c1cnc(Nc2ccc(Cl)c(Cl)c2)nc1NCCN1CCOCC1` [Example 1(104), 2-(3,4-dichloro-phenylamino)-4-(2-morpholino-1-ethylamino)-5-trifluoromethyl-pyrimidine] was over 7.00.

As to `CS(=O)(=O)NCCNc1nc(Nc2ccc(Cl)c(Cl)c2)ncc1C(F)(F)F` [Example 7(001), N-(2-[2-(3,4-dichloro-phenylamino)-5-trifluoromethyl-pyrimidin-4-ylamino]-ethyl)-methanesulphonamide], the pIC50 is over 7.00.

Take `O=C1CCCN1CCCNc1nc(Nc2ccc(-c3nn[nH]n3)cc2)ncc1C(F)(F)F` [Example 2(076), 1-(3-{2-[4-(2H-tetrazol-5-yl)-phenylamino]-5-trifluoromethyl-pyrimidin-4-ylamino}-propyl)-pyrrolidin-2-one]: the pIC50 is over 7.00. The value for `CC(=O)NCCNc1nc(Nc2ccc3[nH]ncc3c2)ncc1C(F)(F)F` [Example 2(045), N-{2-[2-(1H-Indazol-5-ylamino)-5-trifluoromethyl-pyrimidin-4-ylamino]-ethyl}-acetamide] was over 7.00; that for `CC(=O)NCCNc1nc(Nc2ccc(Br)cc2)ncc1C(F)(F)F` [Example 2(007), 2-(4-bromophenylamino)-4-(2-acetylamino-ethylamino)-5-trifluoromethyl-pyrimidine] was over 7.00; that for `Brc1cnc(Nc2ccc3cn[nH]c3c2)nc1N1CCc2[nH]cnc2C1` [Example 2(142), [5-Bromo-4-(1,4,6,7-tetrahydro-imidazo[4,5-c]pyridin-5-yl)-pyrimidin-2-yl]-(1H-indazol-6-yl)-amine] was over 7.00. `FC(F)(F)c1cnc(Nc2cccc(Br)c2)nc1N1CCc2[nH]cnc2C1` [Example 1(038), 2-(3-bromo-phenylamino)-4-(1,4,6,7-tetrahydro-imidazo[4,5-c]pyridin-5-yl)-5-trifluoromethyl-pyrimidine]: the pIC50 is over 7.00.

For `CCN(CC)C(=O)NCCCNc1nc(Nc2ccc3cnn(C)c3c2)ncc1C(F)(F)F` [Example 7(032), 1,1-diethyl-3-{3-[2-(1-methyl-1H-indazol-6-ylamino)-5-trifluoromethyl-pyrimidin-4-ylamino]-propyl}-urea], the pIC50 was over 7.00. Take `CC(=O)NC(C)(C)CNc1nc(Nc2ccc(S(=O)(=O)N3CCOCC3)cc2)ncc1C(F)(F)F` [Example 1(685), N-(1,1-dimethyl-2-{2-[4-(morpholine-4-sulphonyl)-phenylamino]-5-trifluoromethyl-pyrimidin-4-ylamino}-ethyl)-acetamide]: the pIC50 was over 7.00.

For `CC(=O)NCCNc1nc(Nc2ccc(NS(C)(=O)=O)cc2)ncc1C(F)(F)F` [Example 10(014), N-(2-[2-(4-methanesulphonylamido-phenylamino)-5-trifluoromethyl-pyrimidin-4-ylamino]-ethyl)-acetamide], the pIC50 was over 7.00. The value for `CC(=O)NCCNc1nc(Nc2ccc(Br)c(Cl)c2)ncc1C(F)(F)F` [Example 2(014), 2-(4-bromo-3-chloro-phenylamino)-4-(2-acetylamino-ethylamino)-5-trifluoromethyl-pyrimidine] was over 7.00; that for `O=C(O)c1ccc(Nc2ncc(C(F)(F)F)c(NCCCN3CCCC3=O)n2)cc1` [Example 1(021), 2-(4-carboxy-phenylamino)-4-(3-(2-oxo-pyrrolidin-1-yl)-propyl-1-amino)-5-trifluoromethyl-pyrimidine] was over 7.00. In the case of `CC(=O)N(C)CC1CCN(c2nc(Nc3ccc(Cl)cc3)ncc2[N+](=O)[O-])CC1` [Example 1(052), 2-(4-chloro-phenylamino)-4-(4-(N-acetyl-N-methyl-aminomethyl)-piperidin-1-yl)-5-nitro-pyrimidine], the pIC50 is over 7.00. For the compound `O=[N+]([O-])c1cnc(Nc2ccc(Br)cc2)nc1N1CCc2[nH]cnc2C1` [Example 1(116), 2-(4-bromophenylamino)-4-(1,4,6,7-tetrahydro-imidazo[4,5-c]pyridin-5-yl)-5-nitro-pyrimidine], the pIC50 is over 7.00. The figure for `CC(=O)NCCNc1nc(Nc2ccc3cn(C)nc3c2)ncc1C(F)(F)F` [Example 1(656), N-{2-[2-(2-methyl-2H-indazol-6-ylamino)-5-trifluoromethyl-pyrimidin-4-ylamino]-ethyl}-acetamide] is over 7.00; for `N#Cc1ccc(Nc2ncc([N+](=O)[O-])c(N3CCc4[nH]cnc4C3)n2)cc1` [Example 1(032), 2-(4-cyano-phenylamino)-4-(1,4,6,7-tetrahydro-imidazo[4,5-c]pyridin-5-yl)-5-nitro-pyrimidine] it is over 7.00; for `NCCCNc1nc(Nc2cccc(Br)c2)ncc1C(F)(F)F` [Example 1(024), 2-(3-bromo-phenylamino)-4-(3-amino-propylamino)-5-trifluoromethyl-pyrimidine] it is over 7.00. The value for `CC(C)CC(=O)NCCCNc1nc(Nc2ccc3cnn(C)c3c2)ncc1C(F)(F)F` [Example 7(015), 3-methyl-N-{3-[2-(1-methyl-1H-indazol-6-ylamino)-5-trifluoromethyl-pyrimidin-4-ylamino]-propyl}-butyramide] was over 7.00; that for `O=C1CCCN1CCCNc1nc(Nc2ccc3cn[nH]c3c2)ncc1Br` [Example 2(106), 1-{3-[5-Bromo-2-(1H-indazol-6-ylamino)-pyrimidin-4-ylamino]-propyl}-pyrrolidin-2-one] was over 7.00.

With `CC(=O)NCCNc1nc(Nc2ccc(S(=O)(=O)N3CCCNCC3)cc2)ncc1C(F)(F)F` [Example 2(060), N-(2-{2-[4-(Perhydro-1,4-diazepin-1-sulphonyl)-phenylamino]-5-trifluoromethyl-pyrimidin-4-ylamino}-ethyl)-acetamide], the pIC50 was over 7.00. The value for `O=C1NCCN1CCNc1nc(Nc2ccc(S(=O)(=O)N3CCOCC3)cc2)ncc1C(F)(F)F` [Example 2(051), 1-(2-{2-[4-(Morpholin-4-sulphonyl)-phenylamino]-5-trifluoromethyl-pyrimidin-4-ylamino}-ethyl)-imidazolidin-2-one] was over 7.00. For the compound `O=[N+]([O-])c1cnc(Nc2ccc(Cl)cc2)nc1N1CCc2[nH]cnc2C1` [Example 1(010), 2-(4-chlorophenylamino)-4-(1,4,6,7-tetrahydro-imidazo[4,5-c]pyridin-5-yl)-5-nitro-pyrimidine], the pIC50 was over 7.00. The value for `CC(=O)NCCNc1nc(Nc2ccc(S(N)(=O)=O)cc2)ncc1C(F)(F)F` [Example 2(008), 2-(4-aminosulphonyl-phenylamino)-4-(2-acetylamino-ethylamino)-5-trifluoromethyl-pyrimidine] was over 7.00; that for `OCCCCCNc1nc(Nc2ccc(Cl)c(Cl)c2)ncc1C(F)(F)F` [Example 1(045), 2-(3,4-dichloro-phenylamino)-4-(5-hydroxy-1-pentylamino)-5-trifluoromethyl-pyrimidine] was over 7.00.

Consider `CC(=O)NCCNc1nc(Nc2ccc3[nH]nnc3c2)ncc1C(F)(F)F` [Example 2(042), N-{2-[2-(1H-Benzotriazol-5-ylamino)-5-trifluoromethyl-pyrimidin-4-ylamino]-ethyl}-acetamide], for which the pIC50 is over 7.00. The value for `O=[N+]([O-])c1cnc(Nc2ccc(F)c(Cl)c2)nc1N1CCc2[nH]cnc2C1` [Example 1(015), 2-(3-chloro-4-fluoro-phenylamino)-4-(1,4,6,7-tetrahydro-imidazo[4,5-c]pyridin-5-yl)-5-nitro-pyrimidine] was over 7.00. The value for `CC(=O)NCCNc1nc(Nc2ccc(C(=O)N(C)C)c(Cl)c2)ncc1C(F)(F)F` [Example 8(007), 4-[4-(2-acetylamino-ethylamino)-5-trifluoromethyl-pyrimidin-2-ylamino]-2-chloro-N,N-dimethyl-benzamide] was over 7.00. The value for `NCC1CCC(CNc2nc(Nc3cccc(Br)c3)ncc2C(F)(F)F)CC1` (centres unmarked) [Example 1(088), 2-(3-bromo-phenylamino)-4-(4-aminomethyl-cyclohexylmethylamino)-5-trifluoromethyl-pyrimidine] was over 7.00; that for `CC(=O)NCCNc1nc(Nc2cccc(Cl)c2)ncc1C(F)(F)F` [Example 2(009), 2-(3-chloro-phenylamino)-4-(2-acetylamino-ethylamino)-5-trifluoromethyl-pyrimidine] was over 7.00.

With `CN(C)S(=O)(=O)c1ccc(Nc2ncc(C(F)(F)F)c(NCCN3CCCC3=O)n2)cc1` [Example 1(683), N,N-dimethyl-4-{4-[2-(2-oxo-pyrrolidin-1-yl)-ethylamino]-5-trifluoromethyl-pyrimidin-2-ylamino}-phenylsulphonamide], the pIC50 is over 7.00.
